In patent US20230102520A1, “INHIBITORS OF LOW MOLECULAR WEIGHT PROTEIN TYROSINE PHOSPHATASE (LMPTP) AND USES THEREOF” (Sanford Burnham Prebys Medical Discovery Institute, priority 2019, published 2023):

Molecular target: T1, human LMPTP-A (Homo sapiens, UniProt P24666)
T1 sequence (P24666 1-158): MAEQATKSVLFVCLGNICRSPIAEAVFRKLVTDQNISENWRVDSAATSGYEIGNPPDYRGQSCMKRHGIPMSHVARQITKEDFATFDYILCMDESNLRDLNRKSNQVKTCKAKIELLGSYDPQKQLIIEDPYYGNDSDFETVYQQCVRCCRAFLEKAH
Experiment: Enzyme Assay of Inhibition of LMPTP-A
Format: biochemical
Settings: phosphatase assay, OMFP or pNPP substrate, 50 mM Bis-Tris pH 6.0, 37° C.
Description: Example B-1: Enzyme Assay of Inhibition of LMPTP-A
Phosphatase assays were performed in buffer containing 50 mM Bis-Tris, pH 6.0, 1 mM DTT and 0.01% Triton X-100 at 37° C. For assays conducted with 3-O-methylfluorescein phosphate (OMFP) as substrate, fluorescence was monitored continuously at λex=485 and λem=525 nm. For assays conducted with para-nitrophenylphosphate (pNPP) as substrate, the reaction was stopped by addition of 2× reaction volume of 1 M NaOH, and absorbance was measured at 405 nm. IC50 values of compounds disclosed herein were determined from plots of inhibitor concentration versus percentage of enzyme activity. For inhibitor selectivity assays, each PTP was incubated with either 0.4 mM OMFP or 5 mM pNPP in the presence of 40 μM compound or DMSO. […] For the inhibitor reversibility assay, 50 nM human LMPTP-A was pre-incubated with 10 μM of compound disclosed herein or DMSO for 5 min. The enzyme was diluted 100× in phosphatase assay buffer containing 0.4 mM OMFP and fluorescence was measured at the indicated time points.

IC50 [µM] | SMILES
< 1 | Cc1ccccc1-c1nc2c(N)ncn(Cc3sccc3Cl)c-2n1 [3-[(3-chloro(2-thienyl))methyl]-8-(2-methylphenyl)-3-hydropurine-6-ylamine]
< 1 | Nc1ncn(Cc2sccc2Cl)c2nc(-c3ccccc3)nc1-2 [3-[(3-chloro(2-thienyl))methyl]-8-phenyl-3-hydropurine-6-ylamine]
< 1 | Cc1ccccc1-c1nc2c(N)ncn(Cc3ccncc3Cl)c-2n1 [3-[(3-chloro(4-pyridyl))methyl]-8-(2-methylphenyl)-3-hydropurine-6-ylamine]
< 1 | Cc1ccccc1-c1nc2c(N)ncn(Cc3ccncc3F)c-2n1 [3-[(3-fluoro(4-pyridyl))methyl]-8-(2-methylphenyl)-3-hydropurine-6-ylamine]
< 1 | Cc1ccccc1-c1nc2c(N)ncn(Cc3c(Cl)ncnc3Cl)c-2n1 [3-[(4,6-dichloropyrimidin-5-yl)methyl]-8-(2-methylphenyl)-3-hydropurine-6-ylamine]
< 1 | Nc1ncn(Cc2c(Cl)ncnc2Cl)c2nc(-c3ccccc3)nc1-2 [3-[(4,6-dichloropyrimidin-5-yl)methyl]-8-phenyl-3-hydropurine-6-ylamine]
1 to 20 | Cc1ccccc1-c1nc2c(N)nc(C)n(Cc3c(Br)cnn3C)c-2n1 [3-[(4-bromo-1-methylpyrazol-5-yl)methyl]-2-methyl-8-(2-methylphenyl)-3-hydropurine-6-ylamine]
< 1 | Cc1ccccc1-c1nc2c(N)ncn(Cc3c(Br)cnn3C)c-2n1 [3-[(4-bromo-1-methylpyrazol-5-yl)methyl]-8-(2-methylphenyl)-3-hydropurine-6-ylamine]
< 1 | Cn1ncc(Br)c1Cn1cnc(N)c2nc(-c3ccccc3)nc1-2 [3-[(4-bromo-1-methylpyrazol-5-yl)methyl]-8-phenyl-3-hydropurine-6-ylamine]
< 1 | Cc1ccccc1-c1nc2c(N)ncn(Cc3c(Br)ccnc3Cl)c-2n1 [3-[(4-bromo-2-chloro(3-pyridyl))methyl]-8-(2-methylphenyl)-3-hydropurine-6-ylamine]
< 1 | Nc1ncn(Cc2c(Br)ccnc2Cl)c2nc(-c3ccccc3)nc1-2 [3-[(4-bromo-2-chloro(3-pyridyl))methyl]-8-phenyl-3-hydropurine-6-ylamine]
< 1 | Cc1ccccc1-c1nc2c(N)ncn(Cc3c(Cl)ccnc3F)c-2n1 [3-[(4-chloro-2-fluoro(3-pyridyl))methyl]-8-(2-methylphenyl)-3-hydropurine-6-ylamine]
< 1 | Nc1ncn(Cc2c(Cl)ccnc2F)c2nc(-c3ccccc3)nc1-2 [3-[(4-chloro-2-fluoro(3-pyridyl))methyl]-8-phenyl-3-hydropurine-6-ylamine]
< 1 | COc1nccc(I)c1Cn1cnc(N)c2nc(-c3ccccc3)nc1-2 [3-[(4-iodo-2-methoxy(3-pyridyl))methyl]-8-phenyl-3-hydropurine-6-ylamine]
< 1 | Cc1ccccc1-c1nc2c(N)ncn(Cc3scnc3C)c-2n1 [3-[(4-methyl(1,3-thiazol-5-yl))methyl]-8-(2-methylphenyl)-3-hydropurine-6-ylamine]
1 to 20 | Cc1ncsc1Cn1cnc(N)c2nc(-c3ccccc3)nc1-2 [3-[(4-methyl(1,3-thiazol-5-yl))methyl]-8-phenyl-3-hydropurine-6-ylamine]

IC50 [µM] | SMILES
< 1 | Cc1ccccc1-c1nc2c(N)ncn(Cc3cncc(Cl)c3)c-2n1 [3-[(5-chloro(3-pyridyl))methyl]-8-(2-methylphenyl)-3-hydropurine-6-ylamine]
< 1 | COc1cccc(OC)c1-c1nc2c(N)ncn(Cc3c(Cl)cnc(Cl)c3Cl)c-2n1 [8-(2,6-dimethoxyphenyl)-3-[(2,3,5-trichloro(4-pyridyl))methyl]-3-hydropurine-6-ylamine]
< 1 | COc1cccc(OC)c1-c1nc2c(N)ncn(Cc3c(Cl)ncc(Cl)c3Cl)c-2n1 [8-(2,6-dimethoxyphenyl)-3-[(2,4,5-trichloro(3-pyridyl))methyl]-3-hydropurine-6-ylamine]
< 1 | Cc1ccccc1-c1nc2c(N)ncn(Cc3c(Cl)cnc(Cl)c3Cl)c-2n1 [8-(2-methylphenyl)-3-[(2,3,5-trichloro(4-pyridyl))methyl]-3-hydropurine-6-ylamine]
< 1 | Nc1ncn(Cc2c(Cl)cncc2Cl)c2nc(-c3ccc4c(c3)OCO4)nc1-2 [8-(2H-benzo[d]1,3-dioxolen-5-yl)-3-[(3,5-dichloro(4-pyridyl))methyl]-3-hydropurine-6-ylamine]
1 to 20 | Nc1ccncc1-c1nc2c(N)ncn(Cc3c(Cl)cncc3Cl)c-2n1 [8-(4-amino(3-pyridyl))-3-[(3,5-dichloro(4-pyridyl))methyl]-3-hydropurine-6-ylamine]
< 1 | Nc1ncn(Cc2c(Cl)ccnc2Cl)c2nc(C3C4CC5CC(C4)CC3C5)nc1-2 (stereo not shown) [8-adamantan-2-yl-3-[(2,4-dichloro(3-pyridyl))methyl]-3-hydropurine-6-ylamine]
< 1 | Nc1ncn(Cc2c(Cl)cncc2Cl)c2nc(C3C4CC5CC(C4)CC3C5)nc1-2 (stereo not shown) [8-adamantan-2-yl-3-[(3,5-dichloro(4-pyridyl))methyl]-3-hydropurine-6-ylamine]
< 1 | Nc1ncn(Cc2c(Cl)cncc2Cl)c2nc(-c3nc4ccccc4[nH]3)nc1-2 [8-benzimidazol-2-yl-3-[(3,5-dichloro(4-pyridyl))methyl]-3-hydropurine-6-ylamine]
< 1 | Nc1ncn(Cc2c(Cl)cncc2Cl)c2nc(-c3ccc4[nH]cnc4c3)nc1-2 [8-benzimidazol-5-yl-3-[(3,5-dichloro(4-pyridyl))methyl]-3-hydropurine-6-ylamine]
< 1 | Nc1ncn(Cc2c(Cl)cncc2Cl)c2nc(-c3ccc4ccoc4c3)nc1-2 [8-benzo[3,4-b]furan-6-yl-3-[(3,5-dichloro(4-pyridyl))methyl]-3-hydropurine-6-ylamine]
< 1 | Nc1ncn(Cc2c(Cl)cncc2Cl)c2nc(-c3ccc4occc4c3)nc1-2 [8-benzo[b]furan-5-yl-3-[(3,5-dichloro(4-pyridyl))methyl]-3-hydropurine-6-ylamine]
< 1 | Nc1ncn(Cc2c(Cl)cncc2Cl)c2nc(-c3ccc4sccc4c3)nc1-2 [8-benzo[b]thiophen-5-yl-3-[(3,5-dichloro(4-pyridyl))methyl]-3-hydropurine-6-ylamine]
< 1 | Nc1ncn(Cc2c(Cl)ccnc2Cl)c2nc(-c3ccc4ncsc4c3)nc1-2 [8-benzothiazol-6-yl-3-[(2,4-dichloro(3-pyridyl))methyl]-3-hydropurine-6-ylamine]
1 to 20 | CCN(CC)Cc1nc2c(N)ncn(Cc3c(Cl)cncc3Cl)c-2n1 [({6-amino-3-[(3,5-dichloro(4-pyridyl))methyl](3-hydropurin-8-yl)}methyl)diethylamine]
